Measurements reported in BindingDB's records for doi:10.1021/jm00083a002 (Ici Pharmaceuticals Group, 1992).

The compounds below were run against Prolyl 4-hydroxylase (Gallus gallus) (assay: ChEBML_157453).
From the text: Inhibition of prolyl 4-hydroxylase activity by an indirect assay
An IC50 of 150 µM was found for `O=C(O)c1ccc(/C=C/c2ccc(Cl)cc2)cn1` in this work. An IC50 of 31 µM was found for `O=C(O)c1ccc(NCc2ccc(F)cc2)cn1` in this work. An IC50 of 14.8 µM was found for `COc1ccccc1NC(=O)c1ccc(C(=O)O)nc1` in this work. An IC50 of 8.3 µM was found for `Cc1ccc(NC(=O)c2ccc(C(=O)O)nc2)cc1` in this work. An IC50 of 16.3 µM was found for `O=C(Nc1ccccc1Cl)c1ccc(C(=O)O)nc1` in this work. An IC50 of 11.3 µM was found for `CN(C)c1ccc(C(=O)Nc2ccc(C(=O)O)nc2)cc1` in this work. An IC50 of 26.5 µM was found for `O=C(Nc1ccccc1)c1ccc(C(=O)O)nc1` in this work. An IC50 of 32.9 µM was found for `CCOc1ccccc1NC(=O)c1ccc(C(=O)O)nc1` in this work. An IC50 of 17.4 µM was found for `O=C(Nc1ccc(Cl)cc1)c1ccc(C(=O)O)nc1` in this work. An IC50 of 26.5 µM was found for `COc1cc(NC(=O)c2ccc(C(=O)O)nc2)cc(OC)c1OC` in this work. An IC50 of 39 µM was found for `O=C(O)c1ccc(OCc2ccccc2)cn1` in this work. An IC50 of 21.1 µM was found for `COc1ccc(NC(=O)c2ccc(C(=O)O)nc2)cc1` in this work. An IC50 of 16.5 µM was found for `Cc1ccc(C(=O)Nc2ccc(C(=O)O)nc2)cc1` in this work. An IC50 of 25.6 µM was found for `O=C(Nc1ccc(C(=O)O)nc1)c1ccccc1` in this work. An IC50 of 51.2 µM was found for `O=C(Nc1ccc(C(=O)O)nc1)c1ccc(F)cc1` in this work. An IC50 of 32.2 µM was found for `O=C(Nc1cccc(Cl)c1)c1ccc(C(=O)O)nc1` in this work. An IC50 of 22.5 µM was found for `O=C(Nc1ccc(C(=O)O)nc1)c1ccc(Cl)cc1` in this work. An IC50 of 33.8 µM was found for `O=C(O)c1ccc(NC(=O)c2ccccc2F)cn1` in this work. An IC50 of 4.1 µM was found for `CN(C)c1ccc(NC(=O)c2ccc(C(=O)O)nc2)cc1` in this work. An IC50 of 44 µM was found for `O=C(Nc1ccc([N+](=O)[O-])cc1)c1ccc(C(=O)O)nc1` in this work. An IC50 of 11.2 µM was found for `CCOc1ccc(C(=O)Nc2ccc(C(=O)O)nc2)cc1` in this work. An IC50 of 5 µM was found for `CCOc1ccc(NC(=O)c2ccc(C(=O)O)nc2)cc1` in this work. An IC50 of 11 µM was found for `O=C(Nc1ccccc1F)c1ccc(C(=O)O)nc1` in this work. An IC50 of 16.1 µM was found for `O=C(Nc1ccc(F)cc1)c1ccc(C(=O)O)nc1` in this work. An IC50 of 16.6 µM was found for `COc1ccc(NC(=O)c2ccc(C(=O)O)nc2)c(OC)c1` in this work.

Each compound was assayed against prolyl 4-hydroxylase (Gallus gallus) (assay: Compound was evaluated for inhibition of Prolyl 4-hydroxylase activity in cultured embryonic chick tendon cells).
An IC50 of 80 µM was found for `O=C(O)c1ccc(NCc2ccc(F)cc2)cn1` in this work.
